# According to patent US12030876B2, “Aryl hydrocarbon receptor (AHR) agonists and uses thereof” (Ikena Oncology, Inc., priority 2019, dated 2024):
# Key:
# AHR [1] = biological target: T1, AHR (Mus musculus, UniProt P30561); test: P450 CYP1A1 Luciferase Assay, Hepa1.6 (agonist); format: cell-based, murine; conditions: Hepa1.6, Table 2
# T1 sequence (P30561 1-848 F348L/P471L): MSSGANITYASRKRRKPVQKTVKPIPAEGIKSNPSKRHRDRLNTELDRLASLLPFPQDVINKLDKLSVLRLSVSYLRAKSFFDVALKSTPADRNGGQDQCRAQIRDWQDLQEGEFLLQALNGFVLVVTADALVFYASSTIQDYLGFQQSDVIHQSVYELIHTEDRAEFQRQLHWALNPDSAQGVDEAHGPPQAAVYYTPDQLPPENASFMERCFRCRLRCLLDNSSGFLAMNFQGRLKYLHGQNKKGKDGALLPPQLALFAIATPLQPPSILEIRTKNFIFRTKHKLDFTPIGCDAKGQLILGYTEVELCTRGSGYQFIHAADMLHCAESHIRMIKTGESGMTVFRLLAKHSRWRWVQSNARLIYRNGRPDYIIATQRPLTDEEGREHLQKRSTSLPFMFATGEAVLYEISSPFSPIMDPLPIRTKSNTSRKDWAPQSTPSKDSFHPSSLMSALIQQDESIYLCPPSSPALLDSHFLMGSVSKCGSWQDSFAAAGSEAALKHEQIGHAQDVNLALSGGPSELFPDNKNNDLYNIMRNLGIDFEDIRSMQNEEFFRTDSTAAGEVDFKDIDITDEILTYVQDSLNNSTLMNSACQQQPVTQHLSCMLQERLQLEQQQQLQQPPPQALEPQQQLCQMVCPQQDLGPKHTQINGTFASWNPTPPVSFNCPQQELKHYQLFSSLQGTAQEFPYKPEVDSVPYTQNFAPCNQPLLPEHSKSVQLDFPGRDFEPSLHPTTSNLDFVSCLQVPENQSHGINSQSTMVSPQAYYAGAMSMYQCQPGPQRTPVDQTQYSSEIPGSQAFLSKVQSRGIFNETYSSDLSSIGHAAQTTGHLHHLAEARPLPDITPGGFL
# Method: P450 CYP1A1 Luciferase Assay
# AHR binds to Dioxin Responsive Elements (DRE) upstream of genes that it activates. One measure of AHR activity is P450 CYP1A1 protein levels determined by measuring CYP1A1 enzyme activity using a luminogenic CYP1A1 luciferin-based substrate. Luciferase activity will reflect CYP1A1 activity resulting from activation of AHR in the cells.
# Murine Hepa1-6 or Hepa-1c1c7 or other murine cell line, human HepG2 or other human cell line are plated in media (96-well, 384-well or other plates) and incubated overnight at 37 C in a CO2 incubator.
# (§1) The next day, an AHR agonist compound is added. Cells are incubated for 6, 16 or 24 hours or another time point and then lysed and incubated with a CYP1A1 luciferase-based substrate (e.g. Luciferin-CEE) for 3, 6, or 12 hours of another time point. Determination of luciferase activity as a read-out of CYP1A1 enzyme activity can be measured with a commercial kit such as the Promega P450 Glo CYP1A1 detection reagent or any kit or reagents that provide for measuring luciferase activity. The level of luciferase with only activating ligand (e.g. such as TCDD, kynurenine, ITE (2-(1H-indole-3-ylcarbonyl)-4-thiazolecarboxylic methyl ester), VAF347, BNF (beta-naphthoflavone), ICZ (6-formylindolo(3,2-b) carbazole or other AHR ligands) added is the maximum signal while the luciferase with no ligand is the minimum signal. EC50s can be determined as the concentration which activates half of the maximum luciferase activity.
# AHR [2] = biological target: T2, AHR (Homo sapiens, UniProt P35869); test: DRE-Luciferase Reporter Assay, HepG2 (agonist); format: cell-based; conditions: HepG2, Table 2; read-out: DRE-Luc HepG2 - Agonist: Average EC50
# T2 construct: endogenous in cells; host or cells: HepG2 (human), transfected with a DRE-luciferase reporter only
# T2 sequence (P35869 11-848): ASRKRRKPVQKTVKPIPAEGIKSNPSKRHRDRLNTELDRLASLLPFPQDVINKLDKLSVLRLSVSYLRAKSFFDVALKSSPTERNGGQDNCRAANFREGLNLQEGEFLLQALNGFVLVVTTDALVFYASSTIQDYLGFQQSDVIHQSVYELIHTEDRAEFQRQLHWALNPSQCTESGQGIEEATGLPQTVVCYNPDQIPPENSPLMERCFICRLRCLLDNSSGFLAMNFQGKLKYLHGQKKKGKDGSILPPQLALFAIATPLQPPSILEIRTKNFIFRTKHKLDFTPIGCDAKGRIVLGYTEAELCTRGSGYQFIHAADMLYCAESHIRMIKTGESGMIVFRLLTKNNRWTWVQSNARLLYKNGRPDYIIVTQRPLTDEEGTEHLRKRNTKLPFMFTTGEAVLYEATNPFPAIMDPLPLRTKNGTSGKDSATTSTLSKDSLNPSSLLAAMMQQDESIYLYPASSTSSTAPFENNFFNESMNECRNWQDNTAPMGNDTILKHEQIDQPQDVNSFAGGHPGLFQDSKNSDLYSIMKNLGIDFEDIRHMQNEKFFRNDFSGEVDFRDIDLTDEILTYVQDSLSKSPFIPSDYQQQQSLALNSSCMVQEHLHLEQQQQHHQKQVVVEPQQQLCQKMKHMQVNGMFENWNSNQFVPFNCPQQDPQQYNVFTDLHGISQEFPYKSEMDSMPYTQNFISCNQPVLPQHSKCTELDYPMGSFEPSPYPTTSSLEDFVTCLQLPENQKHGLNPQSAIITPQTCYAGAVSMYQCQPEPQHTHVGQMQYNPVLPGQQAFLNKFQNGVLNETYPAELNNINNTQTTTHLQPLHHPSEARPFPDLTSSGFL
# Method: DRE-Luciferase Reporter Assay
# AHR binds to Dioxin Responsive Elements (DRE) upstream of genes that it activates. One measure of AHR activity is activation of a reporter gene, such as luciferase, downstream of one or multiple DRE elements. Luciferase activity reflects activation and inhibition of AHR in the cells expressing this reporter.
# Murine Hepa1-6 or Hepa-1c1c7 or other murine cell line with a DRE-luciferase reporter either stably or transiently transfected are plated in media in plates (96-well, 384-well or other plates) and incubated overnight at 37 C in a CO2 incubator. Likewise, human HepG2 or other human cell line with a DRE-luciferase reporter either stably or transiently transfected are plated in media in plates (96-well, 384-well or other plates) and incubated overnight at 37 C in a CO2 incubator.
# as §1, with “lysed” for “lysed and incubated with a CYP1A1 luciferase-based substrate (e.g. Luciferin-CEE)”, “determination” for “3, 6, or 12 hours of another time point. Determination”, “the AHR activation. Luciferase” for “CYP1A1 enzyme activity”, “Luciferase kit” for “P450 Glo CYP1A1 detection reagent”, “provide the luciferin substrate” for “provide”
EC50 (AHR [1]),EC50 (AHR [2]),Structure (SMILES)
> 1000 nM,100 to 1000 nM,C[N+](C)(CCO)CCCC(=O)N(c1cccc(C(F)(F)F)c1)c1nc(-c2cccc(Cl)c2)cs1 [I-42]
> 1000 nM,100 to 1000 nM,O=C(c1cccc(-c2csc(Nc3cccc(C(F)(F)F)c3)n2)c1)N1CCOCC1 [I-43]
> 1000 nM,100 to 1000 nM,N=C(N)c1cccc(-c2csc(Nc3cccc(C(F)(F)F)c3)n2)c1 [I-44]
> 1000 nM,> 1000 nM,COc1ccc(-c2csc(Nc3cccc(C(F)(F)F)c3)n2)cc1 [I-46]
> 1000 nM,> 1000 nM,C[N+](C)(C)CCNC(=O)Nc1cccc(-c2csc(Nc3cccc(C(F)(F)F)c3)n2)c1 [I-47]
> 1000 nM,> 1000 nM,CN1CCN(C(=O)c2cccc(-c3csc(Nc4cccc(C(F)(F)F)c4)n3)c2)CC1 [I-48]
> 1000 nM,> 1000 nM,O=[N+]([O-])c1ccccc1-c1csc(Nc2cccc(C(F)(F)F)c2)n1 [I-49]
> 1000 nM,> 1000 nM,CN(C)C(=O)c1cccc(-c2csc(Nc3cccc(C(F)(F)F)c3)n2)c1 [I-50]
> 1000 nM,> 1000 nM,C[N+]1(C)CCN(C(=O)c2cccc(-c3csc(Nc4cccc(C(F)(F)F)c4)n3)c2)CC1 [I-53]

# The next lines start with the compound.
Structure (SMILES),EC50 (AHR [1]),EC50 (AHR [2])
C[N+](C)(C)CCCC(=O)N(c1cccc(C(F)(F)F)c1)c1nc(-c2cccc(Cl)c2)cs1 [I-29],100 to 1000 nM,10 to 100 nM
CN(C)c1cccc(-c2csc(Nc3cccc(C(F)(F)F)c3)n2)c1 [I-30],100 to 1000 nM,10 to 100 nM
C[N+](C)(CCO)CCOC(=O)N(c1cccc(C(F)(F)F)c1)c1nc(-c2cccc(Cl)c2)cs1 [I-31],> 1000 nM,10 to 100 nM
FC(F)(F)c1cccc(-c2csc(Nc3cccc(Cl)c3)n2)c1 [I-32],> 1000 nM,10 to 100 nM
O=C(O)c1cccc(-c2csc(Nc3cccc(C(F)(F)F)c3)n2)c1 [I-33],> 1000 nM,100 to 1000 nM
C[N+](C)(C)CCC(=O)Nc1cccc(-c2csc(Nc3cccc(C(F)(F)F)c3)n2)c1 [I-34],> 1000 nM,100 to 1000 nM
FC(F)(F)Oc1cccc(-c2csc(Nc3cccc(C(F)(F)F)c3)n2)c1 [I-36],> 1000 nM,100 to 1000 nM
O=[N+]([O-])c1cccc(Nc2nc(-c3cccc(Cl)c3)cs2)c1 [I-38],> 1000 nM,100 to 1000 nM
CN(CCOCCN(c1cccc(C(F)(F)F)c1)c1nc(-c2cccc(Cl)c2)cs1)CC(=O)O [I-39],> 1000 nM,100 to 1000 nM
C[N+](C)(C)CCCC(=O)Nc1cccc(-c2csc(Nc3cccc(C(F)(F)F)c3)n2)c1 [I-40],> 1000 nM,100 to 1000 nM
